Assay results published in article PMC7796460, “Relation of Metal-Binding Property and Selective Toxicity of 8-Hydroxyquinoline Derived Mannich Bases Targeting Multidrug Resistant Cancer Cells” (Cancers, 2021).

Assays:
OVCAR-8 cells = experiment: MTT viability assay, OVCAR-8; type: cell-based; details: Homo sapiens, OVCAR-8, 72 h, MTT 72 h
From the text: (§1) MDCK II canine kidney cells, A431 epidermoid carcinoma cells, the human uterine sarcoma cell lines MES-SA and the doxorubicin selected MES-SA-Dx5 were obtained from ATCC (MDCK II: No. CRL-2936™, A431: No. CRL-1555™, MES-SA: No. CRL-1976™, MES-SA/Dx5: No. CRL-1977™). ABCB1 was expressed in A431 and MES-SA cells using lentiviral transduction. The human cervix carcinoma cell line KB-3-1 and the vinblastine selected KB-v1were kind gifts from Dr. Michael M. Gottesman, National Institutes of Health. The phenotype of the resistant cells was verified using cytotoxicity assays. MDCK-B1 and MDCK-MM were established by the Sleeping Beauty transposon-based gene delivery system. OVCAR-8 and NCI-ADRres cells (obtained from the Division of Cancer Treatment and Diagnosis (DCTD) Tumor Repository (National Cancer Institute, Frederick, MD, USA)) were cultivated in RPMI-1640 (Sigma Aldrich, Budapest, Hungary), and other cell lines were cultivated in Dulbecco’s Modified Eagle Medium (DMEM, Sigma Aldrich, Budapest, Hungary), supplemented with 10% fetal bovine serum, 5 mM glutamine, and 50 unit/mL penicillin and streptomycin (Life Technologies, Carlsbad, CA, USA). All cell lines were cultivated at 37 °C, 5% CO2.
(§2) MTT viability assays were performed as described earlier with minor modifications. Briefly, cells were seeded into 96-well tissue culture plates (Sarstedt, Newton, NC, USA/Orange, Braine-l’Alleud, Belgium) at a density of 5000 cells/well and allowed to attach overnight. Test compounds were added to achieve the required final concentration in a final volume of 100 µL per well. After an incubation period of 72 h, the supernatant was removed and fresh medium containing the MTT reagent (0.083 mg/mL) was added. Incubation with MTT at 37 °C was terminated after 1 h by removing the supernatant and lysing the cells with 100 µL DMSO per well. Viability of the cells was measured spectrophotometrically based on the absorbance values at 540 nm using either a Perkin Elmer Victor X3 or an EnSpire microplate reader. Data were background corrected by subtraction of the signal obtained from unstained cell lysates and normalized to untreated cells. Curves were fitted by Prism software (GraphPad Software Inc., San Diego, CA, USA) using the sigmoidal dose-response model (comparing variable and fixed slopes). […] Significance was calculated using unpaired t-tests; results are given as *: p ≤ 0.05, **: p ≤ 0.01, ***: p ≤ 0.001, ****: p ≤ 0.0001.

KB-3-1 cells = experiment: MTT viability assay, KB-3-1; type: cell-based; details: Homo sapiens, KB 3-1, 72 h, MTT 72 h
From the text: as §1, §2

KB-v1 cells = experiment: MTT viability assay, KB-v1; type: cell-based; details: Homo sapiens, KB-V1, 72 h, MTT 72 h
From the text: as §1, §2

MES-SA cells = experiment: ROS determination with DCFDA, MES-SA; type: cell-based, human; details: 2 h
Experimental: (§3) Measurements were performed as described earlier. Briefly, cells were harvested, washed with PBS, and incubated with 10 µM DCFDA in a water bath shaker at 37 °C for 30 min in a density of 3 × 10^6 cells/mL. After washing with PBS, cells were seeded to 96-well plates in PBS in a density of 2 × 10^4 cells/well. Following the measurement of the basal fluorescence, test compounds were added in different concentrations and the fluorescence of the samples was followed at time intervals of 10 min. DCFDA solution in buffer was used as a cell free control to test for interaction of the test compounds with DCFDA. Data were analyzed as fold change of fluorescence compared to basal levels and untreated cells. Significance was calculated using unpaired t-tests; results are given as *: p ≤ 0.05, **: p ≤ 0.01, ***: p ≤ 0.001, ****: p ≤ 0.0001.
(§4) Table S3: Characterization of intracellular ROS production with the DCFDA assay for P -gp negative MES-SA and P-gp positive MES-SA/Dx5 cells. Fold changes in fluorescence are shown after a 2 h with the investigated 8 -hydroxyquinoline ligands. Data S-refer to Figure 7 and allow […]
(§5) concentration range from 6.25µ M to 50µ M. Fold change of fluorescence obtained in the presence of 5 mM NAC is given in brackets.

MES-SA/Dx5 cells = experiment: ROS determination with DCFDA, MES-SA/Dx5; type: cell-based, human; details: 2 h
Experimental: as §3, §4, §5

[1] = presence of 1 µM Tariquidar (values in brackets)
[2] = 6.25 µM, presence of 5 mM NAC (brackets)
[3] = 12.5 µM, presence of 5 mM NAC (brackets)
[4] = 25 µM, presence of 5 mM NAC (brackets)
[5] = 50 µM, presence of 5 mM NAC (brackets)
[6] = MES-SA/Dx5, 6.25 µM, presence of 5 mM NAC (brackets)
[7] = MES-SA/Dx5, 12.5 µM, presence of 5 mM NAC (brackets)
[8] = MES-SA/Dx5, 25 µM, presence of 5 mM NAC (brackets)
[9] = MES-SA/Dx5, 50 µM, presence of 5 mM NAC (brackets)

| SMILES | IC50 (OVCAR-8 cells; absence of Tariquidar) [µM] | IC50 (OVCAR-8 cells; [1]) [µM] | IC50 (KB-3-1 cells; absence of Tariquidar) [µM] | IC50 (KB-3-1 cells; [1]) [µM] | IC50 (KB-v1 cells; absence of Tariquidar) [µM] | IC50 (KB-v1 cells; [1]) [µM] | Fold change in fluorescence (DCFDA) (MES-SA cells; 6.25 µM) | Fold change in fluorescence (DCFDA) (MES-SA cells; [2]) | Fold change in fluorescence (DCFDA) (MES-SA cells; 12.5 µM) | Fold change in fluorescence (DCFDA) (MES-SA cells; [3]) | Fold change in fluorescence (DCFDA) (MES-SA cells; 25 µM) | Fold change in fluorescence (DCFDA) (MES-SA cells; [4]) | Fold change in fluorescence (DCFDA) (MES-SA cells; 50 µM) | Fold change in fluorescence (DCFDA) (MES-SA cells; [5]) | Fold change in fluorescence (DCFDA) (MES-SA/Dx5 cells; MES-SA/Dx5, 6.25 µM) | Fold change in fluorescence (DCFDA) (MES-SA/Dx5 cells; [6]) | Fold change in fluorescence (DCFDA) (MES-SA/Dx5 cells; MES-SA/Dx5, 12.5 µM) | Fold change in fluorescence (DCFDA) (MES-SA/Dx5 cells; [7]) | Fold change in fluorescence (DCFDA) (MES-SA/Dx5 cells; MES-SA/Dx5, 25 µM) | Fold change in fluorescence (DCFDA) (MES-SA/Dx5 cells; [8]) | also measured |
| --- | --- | --- | --- | --- | --- | --- | --- | --- | --- | --- | --- | --- | --- | --- | --- | --- | --- | --- | --- | --- | --- |
| Oc1cccc2cccnc12 [Compound Q-1, 8-Hydroxyquinoline] | 3.45 ± 0.13 | 3.43 | 8.59 ± 2.92 | 10.9 | 8.71 ± 4.43 | 10.8 | 0.965± 0.12 | 1.261± 0.26 | 0.799± 0.12 | 1.148± 0.32 | 0.722± 0.22 | 1.193± 0.44 | 0.748± 0.21 | 0.912± 0.38 | 1.006± 0.15 | 1.085± 0.11 | 0.720± 0.21 | 1.071± 0.12 | 0.713± 0.21 | 0.971± 0.17 | Fold change in fluorescence (DCFDA) (MES-SA/Dx5 cells; MES-SA/Dx5, 50 µM): 0.725± 0.18; Fold change in fluorescence (DCFDA) (MES-SA/Dx5 cells; [9]): 0.918± 0.10 |
| Oc1c(CNCc2ccccc2F)cc(Cl)c2cccnc12 [Compound Q-4, 5-chloro-7-((2-fluorobenzylamino)methyl)quinolin-8-ol] | 1.08 ± 0.1 | 1.09 | 1.75 ± 0.62 | 2.65 | 0.27 ± 0.12 | 2.27 | 1.207± 0.20 | 1.030± 0.16 | 1.190± 0.14 | 1.033± 0.21 | 1.187± 0.29 | 0.985± 0.12 | 1.151± 0.19 | 1.040± 0.17 | 1.238± 0.28 | 1.191± 0.07 | 1.396± 0.35 | 1.337± 0.26 | 1.340± 0.26 | 1.320± 0.31 | Fold change in fluorescence (DCFDA) (MES-SA/Dx5 cells; MES-SA/Dx5, 50 µM): 1.286± 0.30; Fold change in fluorescence (DCFDA) (MES-SA/Dx5 cells; [9]): 1.283± 0.20 |
| Oc1c(CN2CCCCC2)ccc2cccnc12 [Compound Q-3, 7-(piperidin-1-ylmethyl)quinolin-8-ol] | 3.15 ± 0.36 | 3.72 | 6.19 ± 0.12 | 6.69 | 1.56 ± 0.57 | 7.47 | 1.288± 0.24 | 1.097± 0.11 | 1.372± 0.22 | 1.080± 0.27 | 1.464± 0.39 | 1.119± 0.24 | 1.753± 0.37 | 1.054± 0.25 | 1.449± 0.46 | 0.954± 0.15 | 1.400± 0.18 | 1.050± 0.09 | 1.586± 0.22 | 1.201± 0.17 | Fold change in fluorescence (DCFDA) (MES-SA/Dx5 cells; MES-SA/Dx5, 50 µM): 1.786± 0.36; Fold change in fluorescence (DCFDA) (MES-SA/Dx5 cells; [9]): 1.189± 0.18 |
| Oc1c(CN2CCOCC2)ccc2cccnc12 [Compound Q-2, 7-(morpho-lino-methyl)quinolin-8-ol] | 3.16 ± 0.52 | 3.28 | 9.55 ± 2.55 | 11.7 | 6.42 ± 2.19 | 11.3 | 1.598± 0.32 | 1.096± 0.16 | 1.792± 0.53 | 0.930± 0.16 | 2.101± 0.86 | 0.988± 0.15 | 2.454± 1.39 | 0.946± 0.14 | 1.863± 0.81 | 1.024± 0.19 | 2.324± 1.25 | 1.137± 0.32 | 3.348± 2.35 | 1.074± 0.28 | Fold change in fluorescence (DCFDA) (MES-SA/Dx5 cells; MES-SA/Dx5, 50 µM): 4.103± 2.67; Fold change in fluorescence (DCFDA) (MES-SA/Dx5 cells; [9]): 1.154± 0.22 |
